Assay results published in patent publication US20230338362A1 (priority 2020, published 2023).
pIC50: −log10 of the molar value. Peptide text beside a SMILES is read from it. * marks the point of attachment. Cbz = O=C(OCc1ccccc1)*; CH2F = FC*

How the values were obtained:
[1] = test system: VERO-E6 cells enriched for angiotensin converting enzyme 2 receptor (ACE-2); assay: In vitro toxicity, cell viability assay in VERO-E6 cells in the absence of virus; conditions: Table I, positive controls; absence of SARS-CoV-2 virus
SARS-CoV-2 = SARS-CoV-2 inhibition, cell viability assay (CellTiter-Glo) in VERO-E6 cells enriched for ACE-2; type: cell-based; conditions: Table I, positive controls; VERO-E6 cells enriched for ACE-2 plus SARS-CoV-2; read-out: IC50
[2] = test system: macrophages treated with SARS-CoV-2 Spike protein; type: cell-based, human; further: test concentration or dose not given here
[3] = test system: macrophages treated with SARS-CoV-2 Spike protein; type: cell-based, human; remark: listed apart in the source; further: test concentration or dose not given here
[4] = test system: IRAK1, NF-κB, MAPKs, IRAK4 (MyD88 signaling); assay: MyD88 signaling in human macrophages; type: cell-based
[5] = human macrophages, through interaction with MyD88

CCN(CCO)CCCC(C)Nc1ccnc2cc(Cl)ccc12 (stereo not drawn) [Hydroxychloroquine, hydroxychloroquine, reference compound]
CC50 [1]: > 30 µM

CCOC(=O)[C@H]1O[C@@H]1C(=O)N[C@@H](CC(C)C)C(=O)NCCC(C)C [E64d (aloxistatin), aloxistatin, reference compound]
CC50 [1]: > 30 µM

CC(C)C[C@H](NC(=O)OCc1ccccc1)C(=O)N[C@@H](CC(C)C)C(=O)N[C@@H](Cc1ccc(O)cc1)C(=O)CF [Calpain Inhibitor IV, reference compound] (Cbz-Leu-Leu-Tyr-CH2F)
pIC50 (SARS-CoV-2): 6.92
CC50 [1]: > 7.17 µM

O=C(OC[C@H]1O[C@@H](OC(=O)c2cc(O)c(O)c(O)c2)[C@H](OC(=O)c2cc(O)c(O)c(O)c2)[C@@H](OC(=O)c2cc(O)c(O)c(O)c2)[C@@H]1OC(=O)c1cc(O)c(O)c(O)c1)c1cc(O)c(O)c(O)c1
apoptosis by activation of caspase 3 [2]: selectively induces apoptosis
apoptosis by caspase 3 activation [2]: not observed to induce apoptosis
anti-inflammatory cytokines [3]: inducing anti-inflammatory cytokines such as IL-10
expression of cytokine modulators / anti-inflammatory cytokines [3]: activated expression of cytokine modulators IL-10 and IFN-γ
expression of pro-inflammatory cytokines [3]: inhibited expression of pro-inflammatory cytokines IL-1α, VEGF, IL-1β, IL-2, IL-4, IL-5, IL-6, IL-8, IL-12p70, IL-13, GM-CSF, GRO, MCP-1, MIP-1α, MIP-1β, MMP-9, RANTES, and TNF-α
expression of the anti-inflammatory cytokine IL-10 [3]: increasing expression of the anti-inflammatory cytokine IL-10
multiple pro-inflammatory cytokines [3]: suppressed multiple pro-inflammatory cytokines such as IL-1β, TNF-α, IL-6 IL-8, IL-12, MCP-1 and MIP-1α
pro-inflammatory cytokines [3]: selectively inhibited pro-inflammatory cytokine, such as IL-1α, VEGF, IL-1β, IL-2, IL-4, IL-5, IL-6, IL-8, IL-12p70, IL-13, GM-CSF, GRO, MCP-1, MIP-1α, MIP-1β, MMP-9, RANTES, and TNF-α
NF-κB translocation into the nucleus [4]: inhibited NF-κB translocation into the nucleus
activation of IRAK1, NF-κB, and MAPKs [4, 5]: potently reduced the activation of IRAK1, NF-κB, and MAPKs
expression of IRAK4 [4, 5]: increasing expression of IRAK4
